Experimental data published in US11518759B1, “Protacs based on VHL ligand targeting coronavirus 3CL protease and preparation method and application thereof” (SHAANXI PANLONG PHARMACEUTICAL CO., LTD., priority 2022, dated 2022).
Where two headings read alike, the source gives them in different places.

Assays:
SARS-CoV-2 3CL^pro [1] = molecular target: T1, SARS-CoV-2 3CL^pro (Severe acute respiratory syndrome coronavirus 2 (2019-nCoV) (SARS-CoV-2), UniProt P0DTD1); format: cell-based; conditions: 24 h, Western Blot
SARS-CoV-2 3CL^pro [2] = molecular target: T1, SARS-CoV-2 3CL^pro; experiment: biochemical; conditions: FRET

Cc1ncsc1-c1ccc(CNC(=O)[C@@H]2C[C@@H](O)CN2C(=O)[C@@H](NC(=O)COCCOCCn2cc(Cn3c(=O)[nH]/c(=N\c4cc5cn(C)nc5cc4Cl)n(Cc4cc(F)c(F)cc4F)c3=O)nn2)C(C)(C)C)cc1 [Compound 8]
< 100 nM: DC50 (SARS-CoV-2 3CL^pro [1]; HEK293E cells transfected with 3CLpro plasmid, class symbols) | DC50 (SARS-CoV-2 3CL^pro [1]; read-out: DC50 values for 3CL^pro, HEK293E cells, bound stated) | IC50 (SARS-CoV-2 3CL^pro [2]; SARS-CoV-2 3CLpro 0.5 μM, substrate 20 μM, class symbols, read-out: IC50) | IC50 (SARS-CoV-2 3CL^pro [2]; bound stated, read-out: IC50 values on 3CL^pro)
